Drawing on US9840509B2, “Heterocyclic compounds” (CADILA HEALTHCARE LIMITED, priority 2014, dated 2017), this text covers IC50 and inhibition for nine compounds.

Data set [1] addresses T1, recombinant purified human BTK (Homo sapiens, UniProt Q06187).
T1 construct: purchased SignalChem, USA
Description: In vitro BTK kinase assay on ADP Glo platform. The data set is classed as biochemical. To be noted: 2 hr room temperature, read-out: In-vitro BTK inhibitory activity: IC50. As to the method: Testing of Compounds of the Invention Biological Studies: In vitro BTK Inhibitory Activity Assay:
In vitro BTK inhibitory activity of test compounds were screened using BTK kinase assay on ADP Glo platform (Li, H., Totoritis, R. D., Lor, L. A., Schwartz, B., Caprioli, P., Jurewicz, A. J and Zhang, G., Assay Drug Dev. Technol., 2009, 7(6), 598-605). Briefly, fixed amount of recombinant purified human BTK (3 ng/reaction from SignalChem, USA) were incubated with increasing concentration of test compounds, in 1× kinase reaction buffer (40 mM Tris-Cl, pH7.5, 20 mM MgCl2, 2 mM MnCl2, 0.1 mg/ml BSA and 50 μM DTT). Enzymatic reaction was initiated by adding a substrate cocktail containing 50 µM of ATP (final concentration) and […] of polyGln4Tyr1 (Signal Chem) in total 25 μl of reaction, in round bottom white 96 well plate. The reaction mixture was incubated at room temperature for 2 hr. After 2 hr of incubation, 10 μl of the reaction mix was mixed with […] of ADP Glo reagent, in another round bottom white 96 well plate and incubated at room temperature for 40 min. This was followed by addition of kinase detection reagent (20 μl per reaction) and incubation at room temperature for 30 min. Finally, plate was read for luminescence at an integration time of 500 millisecond per well. Data were plotted taking Enzyme with no inhibitor set as the 100% kinase activity and for dose response curve, % Kinase activity was plotted against conc on Log scale and IC50 was determined by non linear curve fitting method using GraphPad Prism software 6. The in vitro BTK inhibitory activity (IC50) for representative compounds are listed in […]
Background: ADP-Glo turns the ADP formed in a reaction into a luminescent signal.

The target of the next data set is T2, CYP 1A2 (Homo sapiens, UniProt P05177).
T2 construct: from tissue; host or cells: human liver microsomes
T2 sequence (P05177 1-516): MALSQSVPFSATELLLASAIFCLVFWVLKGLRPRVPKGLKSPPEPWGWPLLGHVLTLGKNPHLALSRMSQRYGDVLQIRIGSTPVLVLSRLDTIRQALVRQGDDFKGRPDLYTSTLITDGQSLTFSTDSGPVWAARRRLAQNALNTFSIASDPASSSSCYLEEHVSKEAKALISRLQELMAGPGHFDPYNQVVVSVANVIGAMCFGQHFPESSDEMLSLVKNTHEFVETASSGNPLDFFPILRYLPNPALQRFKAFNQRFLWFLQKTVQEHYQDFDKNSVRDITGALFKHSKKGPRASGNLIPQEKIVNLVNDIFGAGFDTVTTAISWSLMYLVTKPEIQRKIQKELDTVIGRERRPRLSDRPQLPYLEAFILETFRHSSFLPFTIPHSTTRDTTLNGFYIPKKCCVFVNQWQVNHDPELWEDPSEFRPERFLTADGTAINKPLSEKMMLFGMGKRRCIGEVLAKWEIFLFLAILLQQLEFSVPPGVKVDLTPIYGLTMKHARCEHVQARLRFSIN
Description: CYP inhibition in human liver microsomes, 1A2. The settings on record: pH 7.4, @ 10 μM concn. The format is in vitro ADME. As to the method:
(§1) CYP Inhibition Studies: CYP inhibition studies were performed with test compounds, at two concentrations ([…] and 10 μM), using human liver microsomes (Yao, M., Zhu, M., Sinz, M. W., Zhang, H., Humphreys, W. F., Rodrigues, A. D and Dai, R., Journal of Pharmaceutical and Biomedical Analysis, 2007, 44, 211-223; Walsky, R. L and Obach, R. S., Drug Metab. Dispos., 2004, 32, 647-660). Human liver microsomes were mixed with 100 mM phosphate buffer (pH 7.4) and probe substrate and warmed to […] in microcentrifuge tubes. Aliquots of this mixture (499 μL) were transferred to each pre-labeled microcentrifuge tubes, followed by addition of the 1 μL of inhibitors (test compound/CYP-specific positive control inhibitor) or control solvent (DMSO). Aliquots of this mixture (90 μL) were transferred to each pre-labeled microcentrifuge tubes in duplicate. Final solvent concentrations were 0.2% (v/v) or less. Incubations were commenced with the addition of 10 μL NADPH stock (assay concentration, 1 mM) to a final incubation volume of 100 μL and incubated in shaking water bath (at 37° C. and 100 rpm), for the period defined in Tables 1. Incubations were terminated by addition of 400 μL of termination solvent (CH3CN) containing internal standard. The terminated samples were vortex-mixed, centrifuged at 10000 rpm for 5 min and supernatant transferred into HPLC vials for LC-MS/MS analysis to monitor metabolites produced by marker CYP reactions. […] Animals

For another data set, the target named is T3, CYP 2C8 (Homo sapiens, UniProt P10632).
T3 construct: from tissue; host or cells: human liver microsomes
T3 sequence (P10632 1-490): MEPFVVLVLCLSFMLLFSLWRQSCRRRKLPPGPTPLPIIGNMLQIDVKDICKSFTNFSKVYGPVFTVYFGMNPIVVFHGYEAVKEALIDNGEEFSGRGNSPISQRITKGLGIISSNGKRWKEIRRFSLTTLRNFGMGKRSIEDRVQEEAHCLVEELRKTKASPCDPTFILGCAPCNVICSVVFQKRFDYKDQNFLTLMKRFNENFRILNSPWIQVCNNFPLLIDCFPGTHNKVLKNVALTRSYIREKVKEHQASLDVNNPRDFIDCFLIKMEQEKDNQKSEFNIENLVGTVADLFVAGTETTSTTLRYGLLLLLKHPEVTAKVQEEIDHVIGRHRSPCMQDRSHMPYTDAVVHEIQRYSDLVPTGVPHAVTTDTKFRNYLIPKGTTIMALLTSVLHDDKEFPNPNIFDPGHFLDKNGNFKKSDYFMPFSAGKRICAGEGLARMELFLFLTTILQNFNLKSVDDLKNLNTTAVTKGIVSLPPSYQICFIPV
Description: CYP inhibition in human liver microsomes, 2C8. The settings on record: pH 7.4, @ 10 μM concn. The format is in vitro ADME. As to the method: as §1
Background: Liver microsomes are vesicles of endoplasmic reticulum, rich in cytochrome P450 enzymes.

The target in another data set is T4, CYP 2C9 (Homo sapiens, UniProt P11712).
T4 construct: from tissue; host or cells: human liver microsomes
T4 sequence (P11712 whole entry): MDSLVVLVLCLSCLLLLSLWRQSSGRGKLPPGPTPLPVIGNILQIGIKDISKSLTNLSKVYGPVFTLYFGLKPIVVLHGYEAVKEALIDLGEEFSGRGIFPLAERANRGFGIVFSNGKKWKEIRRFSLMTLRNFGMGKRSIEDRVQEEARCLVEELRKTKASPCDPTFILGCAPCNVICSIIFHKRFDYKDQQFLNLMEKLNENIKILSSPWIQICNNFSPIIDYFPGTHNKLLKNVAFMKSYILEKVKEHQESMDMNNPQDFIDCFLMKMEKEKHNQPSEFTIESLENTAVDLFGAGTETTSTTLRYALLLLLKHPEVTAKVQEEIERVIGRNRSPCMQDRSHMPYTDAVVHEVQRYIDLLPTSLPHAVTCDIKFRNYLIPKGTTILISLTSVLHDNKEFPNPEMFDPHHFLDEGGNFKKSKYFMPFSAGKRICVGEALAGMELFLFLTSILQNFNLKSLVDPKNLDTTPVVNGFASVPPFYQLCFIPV
Description: CYP inhibition in human liver microsomes, 2C9. The data set is classed as in vitro ADME. To be noted: pH 7.4, @ 10 μM concn. As to the method:
as §1

Another data set deals with T5, CYP 2C19 (Homo sapiens, UniProt P33261).
T5 construct: from tissue; host or cells: human liver microsomes
T5 sequence (P33261 whole entry): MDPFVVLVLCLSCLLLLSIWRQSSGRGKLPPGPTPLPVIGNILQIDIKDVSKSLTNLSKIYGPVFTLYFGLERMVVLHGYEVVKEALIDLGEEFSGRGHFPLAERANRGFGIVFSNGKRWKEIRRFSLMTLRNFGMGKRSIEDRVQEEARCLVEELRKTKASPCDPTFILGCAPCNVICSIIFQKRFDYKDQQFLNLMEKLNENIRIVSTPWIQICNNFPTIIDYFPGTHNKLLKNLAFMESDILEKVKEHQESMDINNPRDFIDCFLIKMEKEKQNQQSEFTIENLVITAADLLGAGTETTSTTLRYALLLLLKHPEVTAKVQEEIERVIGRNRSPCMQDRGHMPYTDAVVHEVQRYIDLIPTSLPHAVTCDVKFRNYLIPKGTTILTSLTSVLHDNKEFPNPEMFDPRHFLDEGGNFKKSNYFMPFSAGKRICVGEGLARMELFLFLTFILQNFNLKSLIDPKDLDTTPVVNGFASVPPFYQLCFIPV
Description: CYP inhibition in human liver microsomes, 2C19. The data set is classed as in vitro ADME. The settings on record: pH 7.4, @ 10 μM concn. As to the method:
as §1

For the next data set, the target named is T6, CYP 2D6 (Homo sapiens, UniProt P10635).
T6 construct: from tissue; host or cells: human liver microsomes
T6 sequence (P10635 whole entry): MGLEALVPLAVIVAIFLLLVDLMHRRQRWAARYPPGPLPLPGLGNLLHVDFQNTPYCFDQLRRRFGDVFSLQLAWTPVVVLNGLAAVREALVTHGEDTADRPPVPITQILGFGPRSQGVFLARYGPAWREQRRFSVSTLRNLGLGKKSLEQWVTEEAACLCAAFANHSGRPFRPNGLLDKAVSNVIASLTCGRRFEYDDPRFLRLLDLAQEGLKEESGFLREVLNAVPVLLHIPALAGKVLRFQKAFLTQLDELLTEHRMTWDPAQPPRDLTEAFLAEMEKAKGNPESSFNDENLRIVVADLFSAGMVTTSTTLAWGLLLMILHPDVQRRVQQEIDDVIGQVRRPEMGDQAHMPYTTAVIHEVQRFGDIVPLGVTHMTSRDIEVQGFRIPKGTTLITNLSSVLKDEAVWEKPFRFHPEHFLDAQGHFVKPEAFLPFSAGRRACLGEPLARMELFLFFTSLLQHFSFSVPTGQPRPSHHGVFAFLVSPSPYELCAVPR
Description: CYP inhibition in human liver microsomes, 2D6. The format is in vitro ADME. The settings on record: pH 7.4, @ 10 μM concn. As to the method: as §1

The next data set deals with T7, CYP 3A4 (Homo sapiens, UniProt P08684).
T7 construct: from tissue; host or cells: human liver microsomes
T7 sequence (P08684 whole entry): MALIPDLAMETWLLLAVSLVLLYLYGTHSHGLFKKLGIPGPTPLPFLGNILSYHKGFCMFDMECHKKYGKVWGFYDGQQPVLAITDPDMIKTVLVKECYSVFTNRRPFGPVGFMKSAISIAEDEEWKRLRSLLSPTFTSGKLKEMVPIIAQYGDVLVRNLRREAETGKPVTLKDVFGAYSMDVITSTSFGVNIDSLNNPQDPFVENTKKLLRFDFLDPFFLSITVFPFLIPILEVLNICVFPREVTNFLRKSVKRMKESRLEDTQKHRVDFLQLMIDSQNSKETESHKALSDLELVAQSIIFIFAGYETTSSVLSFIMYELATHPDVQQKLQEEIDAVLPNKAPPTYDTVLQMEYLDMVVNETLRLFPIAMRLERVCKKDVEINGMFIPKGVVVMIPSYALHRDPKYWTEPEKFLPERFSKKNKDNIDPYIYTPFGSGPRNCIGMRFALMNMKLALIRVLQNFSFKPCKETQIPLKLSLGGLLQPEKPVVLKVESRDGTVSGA
Description: CYP inhibition in human liver microsomes, 3A4. The data set is classed as in vitro ADME. The settings on record: pH 7.4, @ 10 μM concn. As to the method: as §1

The structures appear in SMILES notation.

T1 sequence (Q06187 whole entry): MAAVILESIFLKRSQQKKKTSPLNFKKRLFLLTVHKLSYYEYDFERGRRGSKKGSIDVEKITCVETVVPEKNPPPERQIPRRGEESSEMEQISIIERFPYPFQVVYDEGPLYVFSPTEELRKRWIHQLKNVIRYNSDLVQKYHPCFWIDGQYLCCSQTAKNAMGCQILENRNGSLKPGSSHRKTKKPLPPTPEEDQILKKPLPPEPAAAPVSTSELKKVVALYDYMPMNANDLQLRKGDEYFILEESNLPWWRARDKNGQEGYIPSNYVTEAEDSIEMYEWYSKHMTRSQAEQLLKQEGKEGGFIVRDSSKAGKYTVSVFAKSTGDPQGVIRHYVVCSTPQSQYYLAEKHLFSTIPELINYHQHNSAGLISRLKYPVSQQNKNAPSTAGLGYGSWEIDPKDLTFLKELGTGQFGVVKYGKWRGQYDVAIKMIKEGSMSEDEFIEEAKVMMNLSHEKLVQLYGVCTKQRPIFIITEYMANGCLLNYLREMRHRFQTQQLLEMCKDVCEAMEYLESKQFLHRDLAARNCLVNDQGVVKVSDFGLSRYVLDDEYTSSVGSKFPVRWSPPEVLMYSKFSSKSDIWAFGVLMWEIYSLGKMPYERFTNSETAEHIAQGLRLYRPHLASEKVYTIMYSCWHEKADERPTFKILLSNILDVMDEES

Usually IC50 stands for the concentration that gives 50% inhibition. One may read the inhibition as the relative decrease from the control value, in per cent. A low value points to a weak effect. For `C=CC(=O)N1CC2CC(n3cc(-c4ccc(Oc5ccccc5)cc4)c4c(N)ncnc43)CC2C1` (stereo not drawn) [Compound 31, 1-(5-(4-amino-5-(4-phenoxyphenyl)-7H-pyrrolo[2,3-d]pyrimidin-7-yl)hexahydrocyclopenta[c]pyrrol-2(1H)-yl)prop-2-en-1-one], the IC50 in data set [1] worked out at 0.6 nM. The inhibition at 10 μM on CYP 1A2, against CYP 2C8, against CYP 2C9, at CYP 2C19, on CYP 2D6 and against CYP 3A4 was under 50% in each case.

In the case of `C=CC(=O)N1CC2CC(n3nc(-c4ccc5ncsc5c4)c4c(N)ncnc43)CC2C1` (stereo not drawn) [Compound 2, 1-(5-(4-amino-3-(benzo[d]thiazol-6-yl)-1H-pyrazolo[3,4-d]pyrimidin-1-yl)hexahydrocyclopenta[c]pyrrol-2(1H)-yl)prop-2-en-1-one], the IC50 in data set [1] stood at 1.1 nM. Besides, the inhibition at 10 μM against CYP 1A2, against CYP 2C8, against CYP 2C9, on CYP 2C19, against CYP 2D6 and against CYP 3A4 was under 50% in each case.

Consider `C=CC(=O)N1CC2CC(n3nc(-c4ccc5c(c4)OCO5)c4c(N)ncnc43)CC2C1` (stereo not drawn) [Compound 15, 1-(5-(4-amino-3-(benzo[d] [1,3]dioxol-5-yl)-1H-pyrazolo[3,4-d]pyrimidin-1-yl)hexahydrocyclopenta[c]pyrrol-2(1H)-yl)prop-2-en-1-one], for which the IC50 in data set [1] was found to be 18 nM. For the same compound, the inhibition at 10 μM against CYP 1A2 was under 50%; at CYP 2C8 it was under 50%; against CYP 2C9 it was under 50%; against CYP 2C19, under 50%; against CYP 2D6 it was under 50%; against CYP 3A4 it was over 50%.

`C=CC(=O)N1CC2CC(n3nc(-c4ccc(-c5nnc(C)o5)cc4)c4c(N)ncnc43)CC2C1` (stereo not drawn) [Compound 16, 1-(5-(4-amino-3-(4-(5-methyl-1,3,4-oxadiazol-2-yl)phenyl)-1H-pyrazolo[3,4-d]pyrimidin-1-yl)hexahydrocyclopenta[c]pyrrol-2(1H)-yl)prop-2-en-1-one]: in data set [1], the IC50 came out at 1.7 nM. Moreover, the inhibition at 10 μM against CYP 1A2, against CYP 2C8, on CYP 2C9, on CYP 2C19, against CYP 2D6 and on CYP 3A4 was under 50% each time.

On to `C=CC(=O)N1CC2CC(n3nc(-c4ccc(NC(=O)c5cnccn5)cc4)c4c(N)ncnc43)CC2C1` (stereo not drawn) [Compound 35, N-(4-(1-(2-acryloyloctahydrocyclopenta[c]pyrrol-5-yl)-4-amino-1H-pyrazolo[3,4-d]pyrimidin-3-yl)phenyl)pyrazine-2-carb oxamide], for which the IC50 in data set [1] was 1.2 nM. The inhibition at 10 μM on CYP 1A2, against CYP 2C8, against CYP 2C9, at CYP 2C19, on CYP 2D6 and at CYP 3A4 was under 50% each time.

Consider `C=CC(=O)N1CC2CC(n3nc(-c4ccc(Oc5ccccn5)cc4)c4c(N)ncnc43)CC2C1` (stereo not drawn) [Compound 43, 1-(5-(4-amino-3-(4-(pyridin-2-yloxy)phenyl)-1H-pyrazolo[3,4-d]pyrimidin-1-yl)hexahydrocyclopenta[c]pyrrol-2(1H)-yl)prop-2-en-1-one], for which, in data set [1], the IC50 came out at 2 nM. The inhibition at 10 μM against CYP 1A2, on CYP 2C8, on CYP 2C9, at CYP 2C19, against CYP 2D6 and at CYP 3A4 was under 50% throughout.

As for `C=CC(=O)N1CC2CC(n3c(Br)c(-c4ccc(Oc5ccccc5)cc4)c4c(N)ncnc43)CC2C1` (stereo not drawn) [Compound 27, 1-(5-(4-amino-6-bromo-5-(4-phenoxyphenyl)-7H-pyrrolo[2,3-d]pyrimidin-7-yl)hexahydrocyclopenta[c]pyrrol-2(1H)-yl)prop-2-en-1-one], the IC50 in data set [1] amounted to 1.6 nM. Further, the inhibition at 10 μM on CYP 1A2, at CYP 2C8, at CYP 2C9, at CYP 2C19, against CYP 2D6 and against CYP 3A4 was under 50% throughout.

On to `C=CC(=O)N1CC2CC(n3nc(-c4ccc(/C(=N/c5cc(C)ccn5)OC)cc4)c4c(N)ncnc43)CC2C1` (stereo not drawn) [Compound 41, (Z)-methyl 4-(1-(2-acryloyloctahydrocyclopenta[c]pyrrol-5-yl)-4-amino-1H-pyrazolo[3,4-d]pyrimidin-3-yl)-N-(4-methylpyridin-2-yl)benzimidate], for which the IC50 in data set [1] was 3.5 nM. For the same compound, the inhibition at 10 μM on CYP 1A2 was under 50%; on CYP 2C8 it was under 50%; on CYP 2C9, under 50%; on CYP 2C19, under 50%; against CYP 2D6 it was under 50%; on CYP 3A4, over 50%.

As for `C=CC(=O)N1CC2CC(n3nc(-c4ccc(-c5cnn(C)c5)cc4)c4c(N)ncnc43)CC2C1` (stereo not drawn) [Compound 21, 1-(5-(4-amino-3-(4-(1-methyl-1H-pyrazol-4-yl)phenyl)-1H-pyrazolo [3,4-d]pyrimidin-1-yl)hexahydrocyclopenta[c]pyrrol-2(1H)-yl)prop-2-en-1-one], the IC50 in data set [1] stood at 50 nM. Moreover, the inhibition at 10 μM at CYP 1A2 was over 50%; on CYP 2C8, under 50%; against CYP 2C9 it was under 50%; against CYP 2C19, under 50%; against CYP 2D6 it was under 50%; against CYP 3A4, under 50%.
